Earlier results in US10857195B2, “Plant extracts for improving sleep” (Kemin Industries, Inc., priority 2014, dated 2020).

Test system: aging mice
Settings: RA administered to aging mice

catalase (CAT) activity in the brain: increased
superoxide dismutase (SOD) activity in the brain: increased
SMILES: O=C(/C=C/c1ccc(O)c(O)c1)O[C@H](Cc1ccc(O)c(O)c1)C(=O)O [RA, Rosmarinic acid]
malondialdehyde (MDA) in the brain: decreasing
